Active and inactive are the calls of the source. No cut-off for these calls is given here.
Experiments:
SiHa [1] = experiment: Antiproliferative activity against human SiHa cells assessed as inhibition of cell growth at 0.4 to 1.6 uM by CCK8 assay; format: functional, cell-based; conditions: dose 0.4-1.6 µM, time 6.0 day
HeLa [2] = experiment: Induction of autophagy pathway in human HeLa cells at 1.2 uM incubated for 24 hrs by GSEA analysis; format: functional, cell-based
C-33-A [3] = experiment: Antiproliferative activity against human C-33-A cells assessed as inhibition of cell viability incubated for 24 hrs by CCK8 assay; format: functional, cell-based
HeLa [4] = experiment: Effect on cleaved caspase 3 expression level in human HeLa cells at 0.3 to 1.2 uM incubated for 24 hrs by Western blot analysis; format: functional, cell-based; conditions: dose 0.3-1.2 µM
Ca-Ski [5] = experiment: Induction of ferroptosis in human Ca Ski cells assessed as increase in lipid ROS level by measuring rightward shift in fluorescence intensity at 0.5 uM measured after 24 hrs by C11-BODIPY-581/591 staining based flow cytometric analysis; format: functional, cell-based
HeLa [6] = experiment: Inhibition of colony formation in ATG5 deficient human HeLa cells at 0.15 to 0.6 uM incubated for 24 hrs by crystal violet staining based analysis; format: functional, cell-based; conditions: dose 0.15-0.6 µM
C-33-A [7] = experiment: Antiproliferative activity against human C-33-A cells assessed as inhibition of cell growth at 0.3 to 1.2 uM by CCK8 assay; format: functional, cell-based; conditions: dose 0.3-1.2 µM, time 6.0 day
Ca-Ski [8] = experiment: Induction of apoptosis in human Ca Ski cells assessed as viable cells at 1 uM preincubated with Z-VAD-FMK for 1 hrs followed by compound addition and measured after 24 hrs by Annexin V-FITC/PI staining based flow cytometric analysis (reference value: 90.2 %); format: functional; conditions: read-out: Activity
SiHa [9] = experiment: Induction of morphological changes in human SiHa cells assessed as decrease in cell adherence to culture dish at 0.5 to 2 uM by microphotographic analysis; format: functional, cell-based; conditions: dose 0.5-2 µM
A549 = experiment: Antiproliferative activity against human A549 cells assessed as reduction in cell optical density incubated for 48 hrs by MTT assay; format: functional, cell-based; conditions: A549, 48 h
HCT-116 = experiment: Antiproliferative activity against human HCT-116 cells assessed as reduction in cell optical density incubated for 48 hrs by MTT assay; format: functional, cell-based; conditions: HCT-116, 48 h
HeLa [10] = experiment: Effect on caspase 3 expression level in Bax deficient human HeLa cells at 0.6 to 1.2 uM incubated for 24 hrs by Western blot analysis; format: functional, cell-based; conditions: dose 0.6-1.2 µM
Ca-Ski [11] = experiment: Induction of autophagy in human Ca Ski cells transfected with mRFP-GFP-LC3 plasmid assessed as decrease in GFP fluorescence at 25 uM incubated for 24 hrs by DAPI staining based fluorescence confocal microscopic analysis; format: functional, cell-based
HeLa [12] = experiment: Induction of autophagy in ATG7 deficient human HeLa cells assessed as increase in LC3-II expression at 0.6 to 1.2 uM incubated for 24 hrs by Western blot analysis; format: functional, cell-based; conditions: dose 0.6-1.2 µM
Ca-Ski [13] = experiment: Effect on caspase 3 expression level in p53 deficient human Ca Ski cells at 0.5 to 1 uM incubated for 24 hrs by Western blot analysis; format: functional, cell-based; conditions: dose 0.5-1 µM
Ca-Ski [14] = experiment: Antiproliferative activity against p53 deficient human Ca Ski cells assessed as inhibition of cell viability incubated for 24 hrs by CCK8 assay; format: functional, cell-based
HeLa [15] = experiment: Effect on ATG16L1 protein level in human HeLa cells at 0.6 to 1.2 uM incubated for 24 hrs by Western blot analysis; format: functional, cell-based; conditions: dose 0.6-1.2 µM
Ca-Ski [16] = experiment: Induction of autophagy in human Ca Ski cells assessed as increase in LC3-I conversion to LC3-II at 0.25 to 1 microM incubated for 24 hrs by Western blot analysis; format: functional, cell-based; conditions: dose 0.25-1 µM
Ca-Ski [17] = experiment: Effect on PARP expression level in p53 deficient human Ca Ski cells at 0.5 to 1 uM incubated for 24 hrs by Western blot analysis; format: functional, cell-based; conditions: dose 0.5-1 µM
HeLa [18] = experiment: Induction of apoptosis in human HeLa cells assessed as early apoptotic cells at 0.6 uM preincubated with Z-VAD-FMK for 1 hrs followed by compound addition and measured after 24 hrs by Annexin V-FITC/PI staining based flow cytometric analysis (reference value: 0.96 %); format: functional
HeLa [19] = experiment: Antitumor activity against human HeLa cells xenografted in female BALB/c mouse assessed as reduction in Ki67 expression in tumor at 4 to 8 mg/kg administered every four days and measured after 26 days by immunohistochemical analysis; format: functional, organism-based; conditions: dose 4-8 mg/kg, time 26.0 day
HeLa [20] = experiment: Effect on Beclin1 protein level in human HeLa cells at 0.6 to 1.2 uM incubated for 24 hrs by Western blot analysis; format: functional, cell-based; conditions: dose 0.6-1.2 µM
Ca-Ski [21] = experiment: Antiproliferative activity against ATG7 deficient human Ca Ski cells assessed as inhibition of cell viability incubated for 24 hrs by CCK8 assay; format: functional, cell-based
Ca-Ski [22] = experiment: Induction of autophagy in ATG7 deficient human Ca Ski cells assessed as increase in LC3-II expression at 0.5 to 1 uM incubated for 24 hrs by Western blot analysis; format: functional, cell-based; conditions: dose 0.5-1 µM
Ca-Ski [23] = experiment: Induction of apoptosis in human Ca Ski cells assessed as necrotic cells at 0.5 uM incubated for 24 hrs by Annexin V-FITC/PI staining based flow cytometric analysis (reference value: 3.15 %); format: functional
HeLa [24] = experiment: Induction of apoptosis in human HeLa cells assessed as late apoptotic cells at 1.2 uM preincubated with Z-VAD-FMK for 1 hrs followed by compound addition and measured after 24 hrs by Annexin V-FITC/PI staining based flow cytometric analysis (reference value: 1.02 %); format: functional
HeLa [25] = experiment: Induction of autophagy in human HeLa cells transfected with mRFP-GFP-LC3 plasmid assessed as decrease in GFP fluorescence at 30 uM incubated for 24 hrs by DAPI staining based fluorescence confocal microscopic analysis; format: functional, cell-based
C-33-A [26] = experiment: Inhibition of colony formation in human C-33-A cells assessed as reduction in colony forming unit count at 0.05 to 0.2 uM incubated for 24 hrs by crystal violet staining based analysis; format: functional, cell-based; conditions: dose 0.05-0.2 µM
Ca-Ski [27] = experiment: Induction of apoptosis in human Ca Ski cells assessed as early apoptotic cells at 1 uM preincubated with Z-VAD-FMK for 1 hrs followed by compound addition and measured after 24 hrs by Annexin V-FITC/PI staining based flow cytometric analysis (reference value: 2.91 %); format: functional
Ca-Ski [28] = experiment: Induction of morphological changes in human Ca Ski cells assessed as decrease in cell adherence to culture dish at 0.5 to 2 uM by microphotographic analysis; format: functional, cell-based; conditions: dose 0.5-2 µM
Ca-Ski [29] = experiment: Induction of apoptosis in human Ca Ski cells assessed as early apoptotic cells at 0.5 uM incubated for 24 hrs by Annexin V-FITC/PI staining based flow cytometric analysis (reference value: 4.76 %); format: functional
HeLa [30] = experiment: Induction of autophagolysosome formation in human HeLa cells transfected with mRFP-GFP-LC3 plasmid assessed as increase in ratio of mRFP to GFP puncta at 0.4 to 0.8 uM incubated for 24 hrs; format: functional, cell-based; conditions: dose 0.4-0.8 µM
Ca-Ski [31] = experiment: Induction of autophagy in human Ca Ski cells transfected with mRFP-GFP-LC3 plasmid assessed as stable RFP fluorescence at 0.3 to 0.6 uM incubated for 24 hrs by DAPI staining based fluorescence confocal microscopic analysis; format: functional, cell-based; conditions: dose 0.3-0.6 µM

COc1cccc(Nc2ccnc3cc(OCCCCCOc4ccc5c(Nc6cccc(OC)c6)ccnc5c4)ccc23)c1
Activity (SiHa [1]): Time-dependent-effect
Activity (HeLa [2]): Active
Activity (C-33-A [3]): Dose-dependent-effect
IC50 (C-33-A [3]): 807 nM
Activity (HeLa [4]): inactive
Activity (Ca-Ski [5]): inactive
inhibition (HeLa [6]): Minimal_effect
Activity (C-33-A [7]): Time-dependent-effect
viability at 1 µM (Ca-Ski [8]): 86.1%
Activity (SiHa [9]): Active
IC50 (A549): 2750 nM
IC50 (HCT-116): 260 nM
Activity (HeLa [10]): inactive
Activity (Ca-Ski [11]): Active
Activity (HeLa [12]): inactive
Activity (Ca-Ski [13]): inactive
IC50 (Ca-Ski [14]): 872 nM
Activity (HeLa [15]): inactive
Activity (Ca-Ski [16]): Active
Activity (Ca-Ski [17]): inactive
Activity (HeLa [18]): 1.31%
Activity (HeLa [19]): Active
Activity (HeLa [20]): inactive
IC50 (Ca-Ski [21]): 2890 nM
Activity (Ca-Ski [22]): inactive
Activity (Ca-Ski [23]): 0.64%
Activity (HeLa [24]): 3.71%
Activity (HeLa [25]): Active
inhibition (C-33-A [26]): Active
Activity (Ca-Ski [27]): 5.56%
Activity (Ca-Ski [28]): Active
Activity (Ca-Ski [29]): 8.01%
Activity (HeLa [30]): Active
Activity (Ca-Ski [31]): Active

Source: ChEMBL document CHEMBL6115007, “Synthesis and in vitro and in vivo evaluation of novel bivalent quinolines as antitumor agents via targeting autophagy in cervical cancer” (Eur J Med Chem, 2025)
